Assay results from BigSolDB 2.1.

O=c1c(-c2ccc(O)cc2)coc2cc(O[C@@H]3O[C@H](CO)[C@@H](O)[C@H](O)[C@H]3O)cc(O)c12
solubility (mole fraction)
Conditions | 283.2 K | 293.2 K | 303.2 K | 313.2 K | 323.2 K
in THF | 8.67e-05 | 0.000101 | 0.000123 | 0.000149 | 0.000186
in acetone | 0.000354 | 0.000361 | 0.000369 | 0.000382 | 0.000388
in acetonitrile | 1.15e-06 | 1.61e-06 | 2.15e-06 | 2.62e-06 | 3.12e-06
in chloroform | 2.86e-07 | 3.37e-07 | 4.14e-07 | 5.02e-07 | 6.54e-07
in cyclohexane | 2.66e-07 | 4.59e-07 | 6.56e-07 | 9.11e-07 | 1.25e-06
in ethanol | 2.63e-05 | 2.85e-05 | 3.28e-05 | 3.72e-05 | 4.38e-05
in ethyl acetate | 1.17e-06 | 1.52e-06 | 1.99e-06 | 2.55e-06 | 3.25e-06
in isopropanol | 7.95e-06 | 1.05e-05 | 1.34e-05 | 1.71e-05 | 2.2e-05
in methanol | 5e-05 | 5.54e-05 | 5.91e-05 | 6.44e-05 | 7.04e-05
in n-butanol | 4.78e-06 | 8.48e-06 | 1.25e-05 | 1.56e-05 | 1.91e-05
in n-hexane | 3.64e-07 | 4.87e-07 | 6.47e-07 | 8.58e-07 | 1.14e-06
